{"source": "patent US6485713B1", "about": "“Sunscreen compositions and methods and materials for producing the same” (The C. P. Hall Company, priority 2002, dated 2002)", "key": {"[1]": {"experiment": "Dielectric constants of sunscreen ingredients at 25° C.", "assay_type": "physicochemical", "conditions": "for Dielectric Constant at 25° C. (ε): neat ingredient; for Dielectric Constant at 25° C. (ε), estimated value: marked estimated", "source_text": "A step of determining the polarity of a mixture or an emulsion can be performed in various ways. For example, determining a polarity can include measuring a property that is a function of polarity, such as a dielectric constant. Measurement of a dielectric constant of a liquid can be performed by various sensors, such as immersion probes, flow-through probes, and cup-type probes, attached to various meters, such as those available from the Brookhaven Instruments Corporation of Holtsville, N.Y. (e.g., model BI-870) and the Scientifica Company of Princeton, N.J. (e.g. models 850 and 870). For consistency of comparison, preferably all measurements for a particular filter system are performed at substantially the same sample temperature, e.g., by use of a water bath. Generally, the measured dielectric constant of a substance will increase at lower temperatures and decrease at higher temperatures.\nA mixture of solvent system and filter system, in accordance with one preferred embodiment, are combined with well-known cosmetically-acceptable additives, such as moisturizers, emollients, solvents, co-solvents, lubricants, thickeners, emulsifiers and/or other common cosmetic formulation additives for solubility of sunscreen active compounds, emulsification, thickening and to provide other skin enhancement, e.g., moisturizing properties. The compositions can be produced as oily lotions, gels, solid sticks, emulsions, aerosols, and all other forms of cosmetic compositions. The dielectric constants of various sunscreen additive materials are well known, see, Dielectric Constant Reference Guide of ASI Instruments, Inc., pages 1-64, (http://asiinstruments.com/dcl.html), hereby incorporated herein by reference."}, "[2]": {"experiment": "Solvency testing of solvents for avobenzone", "assay_type": "physicochemical", "conditions": "solute avobenzone dissolved in the named solvent", "source_text": "(§1) Examples of crystalline UV filters include oxybenzone, avobenzone, and octyl triazone (sold under the trade name UVINUL T-150 by BASF Corporation) and methylbenzilidene camphor."}, "[3]": {"experiment": "Solvency testing of solvents for oxybenzone", "assay_type": "physicochemical", "conditions": "solute oxybenzone dissolved in the named solvent", "source_text": "as §1"}, "[4]": {"experiment": "Solvency testing of solvents for octyl triazone", "assay_type": "physicochemical", "conditions": "solute octyl triazone dissolved in the named solvent", "source_text": "as §1"}, "[5]": {"conditions": "marked literature value, cited from earlier work"}, "[6]": {"experiment": "Solvency for crystalline UV filters, comparison with traditional solvents", "assay_type": "physicochemical", "conditions": "compared to traditional solvents used in sunscreen compositions", "source_text": "as §1"}}, "note": "Where “and” joins values, the source holds several entries; their conditions need not be identical. Equal entries are not always repeated. Where two headings read alike, the source gives them in different places. Marks after values point to notes of the source that are not given here."}
{"compound": "CCCCCCCCOC(=O)CC(O)C(=O)OCCCCCCCC", "note": "(centres unmarked) [Dioctyl malate]", "values": [{"measurement": "Dielectric Constant at 25° C. (ε)", "setting": "[1]", "result": "4.74 and 5.78"}]}
{"compound": "CCCCCCCCCCCCCC(=O)OC(C)C", "note": "[Isopropyl myristate]", "values": [{"measurement": "Solvency for Avobenzone", "setting": "[2]", "result": 15, "unit": "% wt. %"}, {"measurement": "Solvency for Oxybenzone", "setting": "[3]", "result": 20, "unit": "% wt. %"}, {"measurement": "Dielectric Constant at 25° C. (ε)", "setting": "[1]", "result": 3.24}, {"measurement": "Solvency for Octyl triazone", "setting": "[4]", "result": "<5", "unit": "% wt. %"}]}
{"compound": "O", "note": "[Water]", "values": [{"measurement": "Dielectric Constant at 25° C. (ε)", "setting": "[1]", "result": 80}]}
{"compound": "CCCCC(CC)COC(=O)c1ccccc1O", "note": "(centres unmarked) [Ethylhexyl salicylate, 2-ethylhexyl salicylate, reference compound]", "values": [{"measurement": "Solvency for Avobenzone", "setting": "[2]", "result": 16, "unit": "% wt. %"}, {"measurement": "Solvency for Oxybenzone", "setting": "[3]", "result": 18, "unit": "% wt. %"}, {"measurement": "Dielectric Constant at 25° C. (ε)", "setting": "[1]", "result": 6.20}, {"measurement": "Dielectric Constant at 25° C. (ε)", "setting": "[1]; listed as octyl salicylate", "result": 6.2}, {"measurement": "Solvency for Octyl triazone", "setting": "[4]", "result": 5, "unit": "% wt. %"}]}
{"compound": "CCCCCCCCCCCCCCCC(=O)OC(C)C", "note": "[Isopropyl palmitate]", "values": [{"measurement": "Dielectric Constant at 25° C. (ε)", "setting": "[1]", "result": 3.20}]}
{"compound": "CC(C)CCOC(=O)CC(O)C(=O)OCCC(C)C", "note": "(centres unmarked) [Diisoamyl malate]", "values": [{"measurement": "Dielectric Constant at 25° C. (ε)", "setting": "[1]", "result": 7.42}]}
{"compound": "COc1ccc(C(=O)CC(=O)c2ccc(C(C)(C)C)cc2)cc1", "note": "[Avobenzone, 4-(1,1-dimethylethyl)-4′-methoxydibenzoylmethane, reference compound]", "values": [{"measurement": "Dielectric Constant at 25° C. (ε), estimated value", "setting": "[1]", "result": "~10 (estimated.)"}, {"measurement": "Dielectric Constant at 25° C. (ε), estimated value", "setting": "[1]; listed as avobenzone", "result": "~10*"}]}
{"compound": "COc1ccc(C(=O)c2ccccc2)c(O)c1", "note": "[Benzophenone-3, benzophenone-3]", "values": [{"measurement": "Dielectric Constant at 25° C. (ε), literature value", "setting": "[5]; listed as benzophenone-3", "result": "13^†"}, {"measurement": "Dielectric Constant at 25° C. (ε), literature value", "setting": "[5]", "result": 13}]}
{"compound": "CCCCC(CC)COC(=O)C=Cc1ccc(OC)cc1", "note": "(centres unmarked) [Ethylhexyl methoxycinnamate, 2-ethylhexyl paramethoxycinnamate, reference compound]", "values": [{"measurement": "Solvency for Avobenzone", "setting": "[2]", "result": 17, "unit": "% wt. %"}, {"measurement": "Solvency for Oxybenzone", "setting": "[3]", "result": 24, "unit": "% wt. %"}, {"measurement": "Dielectric Constant at 25° C. (ε)", "setting": "[1]", "result": 5.98}, {"measurement": "Solvency for Octyl triazone", "setting": "[4]", "result": 15, "unit": "% wt. %"}]}
{"compound": "CCCCC(CC)COC(=O)CCCCC(=O)OCC(CC)CCCC", "note": "(centres unmarked) [Diethylhexyl adipate]", "values": [{"measurement": "Solvency for Avobenzone", "setting": "[2]", "result": 10, "unit": "% wt. %"}, {"measurement": "Solvency for Oxybenzone", "setting": "[3]", "result": 20, "unit": "% wt. %"}, {"measurement": "Dielectric Constant at 25° C. (ε)", "setting": "[1]", "result": 4.21}, {"measurement": "Solvency for Octyl triazone", "setting": "[4]", "result": "<5", "unit": "% wt. %"}]}
{"compound": "isododecyl alcohol dimer with isopherone diisocyanate (IPDI) [Isododecyl alcohol dimer with IPDI]", "values": [{"measurement": "Dielectric Constant at 25° C. (ε), estimated value", "setting": "[1]", "result": "~10 (estimated.)"}, {"measurement": "Dielectric Constant at 25° C. (ε), estimated value", "setting": "[1]; listed as isododecyl alcohol dimer w/IPDI", "result": "~10*"}]}
{"compound": "Octyldodecyl neopentanoate", "values": [{"measurement": "Dielectric Constant at 25° C. (ε)", "setting": "[1]", "result": 3.04}]}
{"compound": "CCCCCCC(CCCC)COC(=O)CC(O)C(=O)OCC(CCCC)CCCCCC", "note": "(centres unmarked) [Dibutyloctyl malate, bis(2-butyloctyl)malate]", "values": [{"measurement": "Dielectric Constant at 25° C. (ε)", "setting": "[1]", "result": 4.65}]}
{"compound": "CCCCC(CC)COC(=O)C(C#N)=C(c1ccccc1)c1ccccc1", "note": "(centres unmarked) [Octocrylene, 2-ethylhexyl-2-cyano-3,3 diphenylacrylate, reference compound]", "values": [{"measurement": "Solvency for Avobenzone", "setting": "[2]", "result": 27, "unit": "% wt. %"}, {"measurement": "Solvency for Oxybenzone", "setting": "[3]", "result": 32, "unit": "% wt. %"}, {"measurement": "Dielectric Constant at 25° C. (ε)", "setting": "[1]", "result": 11.08}, {"measurement": "Solvency for Octyl triazone", "setting": "[4]", "result": 1, "unit": "% wt. %"}]}
{"compound": "CCCCC(CC)COC(=O)c1ccc2cc(C(=O)OCC(CC)CCCC)ccc2c1", "note": "(centres unmarked) [Diethylhexyl 2,6-naphthalate]", "values": [{"measurement": "Dielectric Constant at 25° C. (ε)", "setting": "[1]", "result": 4.34}]}
{"compound": "CCCCCCCCCC(=O)N(C)C", "note": "[N,N-dimethyldecanamide]", "values": [{"measurement": "Solvency for Avobenzone", "setting": "[2]", "result": 37, "unit": "% wt. %"}, {"measurement": "ability to solvate crystalline UV filters (in words)", "setting": "[6]", "result": "far superior"}, {"measurement": "Solvency for Oxybenzone", "setting": "[3]", "result": 38, "unit": "% wt. %"}, {"measurement": "Dielectric Constant at 25° C. (ε)", "setting": "[1]", "result": 12.43}, {"measurement": "Solvency for Octyl triazone", "setting": "[4]", "result": 37, "unit": "% wt. %"}]}
{"compound": "Isododecyl alcohol dimer with HDI", "values": [{"measurement": "Dielectric Constant at 25° C. (ε), estimated value", "setting": "[1]", "result": "~10 (estimated.)"}, {"measurement": "Dielectric Constant at 25° C. (ε), estimated value", "setting": "[1]; listed as isododecyl alcohol dimer w/HDI", "result": "~10*"}]}
{"compound": "CCCCCCCCCCCCCCCC(=O)OCC(CC)CCCC", "note": "(centres unmarked) [Ethylhexyl palmitate]", "values": [{"measurement": "Dielectric Constant at 25° C. (ε)", "setting": "[1]", "result": 3.06}]}
{"compound": "CCCCCCCCCCCCCCCCCC(C)C", "note": "[Isoeicosane]", "values": [{"measurement": "Dielectric Constant at 25° C. (ε)", "setting": "[1]", "result": 2.04}]}
{"compound": "PPG-2 myristyl ether propionate", "values": [{"measurement": "Dielectric Constant at 25° C. (ε)", "setting": "[1]", "result": 3.88}]}
{"compound": "Diethylhexyl malate", "values": [{"measurement": "Solvency for Avobenzone", "setting": "[2]", "result": "12.5% wt. % and 15% wt. %"}, {"measurement": "Solvency for Oxybenzone", "setting": "[3]", "result": "19% wt. % and 15% wt. %"}, {"measurement": "Dielectric Constant at 25° C. (ε)", "setting": "[1]", "result": "4.74 and 5.88"}, {"measurement": "Dielectric Constant at 25° C. (ε)", "setting": "[1]; listed as diethylhexyl malate", "result": 5.88}, {"measurement": "Solvency for Octyl triazone", "setting": "[4]", "result": "5% wt. % and <5% wt. %"}]}
{"compound": "CCCCCCCCCCCCCCCCCC(=O)OCC(CC)CCCC", "note": "(centres unmarked) [Ethylhexyl stearate]", "values": [{"measurement": "Dielectric Constant at 25° C. (ε)", "setting": "[1]", "result": 3.05}]}
